Reference: PubChem BioAssay AID1259411 (Chemical Carcinogenesis Research Information System (CCRIS), 2018)
Active and inactive are the calls of the source. The rule behind the calls is not given here.

Test system: rodent carcinogenicity bioassays, tumor incidence
Test: CCRIS carcinogenicity studies
Text: The CCRIS database contains chemical records with carcinogenicity, mutagenicity, tumor promotion, and tumor inhibition test results. It was developed by the National Cancer Institute (NCI). Data are derived from studies cited in primary journals, current awareness tools, NCI reports, and other sources. Test results have been reviewed by experts in carcinogenesis and mutagenesis.
CCRIS provides historical information from the years 1985 - 2011. It is no longer updated.
This is an archive assay for CCRIS carcinogenicity studies.

Clc1ccc(-c2cc(Cl)c(Cl)c(Cl)c2)cc1Cl
carcinogen call (Species: RAT, Strain/Sex: SPRAGUE-DAWLEY/FEMALE, Route: GAVAGE, Dose: 0, 30, 100, 175, 300, 550, 1000 NG/KG BW 5 D/WK FOR 2 YRS, Dose: 0, 30, 100, 175, 300, 550, 1000 NG/KG BW 5 D/WK FOR 2 YRS, Tumor Site: Type of Lesion: LIVER: CHOLANGIOCARCINOMA, HEPATOCELLULAR ADENOMA OR CARCINOMA): active; positive | carcinogen call (Species: RAT, Strain/Sex: SPRAGUE-DAWLEY/FEMALE, Route: GAVAGE, Dose: 0, 30, 100, 175, 300, 550, 1000 NG/KG BW 5 D/WK FOR 2 YRS, Dose: 0, 30, 100, 175, 300, 550, 1000 NG/KG BW 5 D/WK FOR 2 YRS, Tumor Site: Type of Lesion: LUNG: CYSTIC KERATINIZING EPITHELIOMA): active; positive | carcinogen call (Species: RAT, Strain/Sex: SPRAGUE-DAWLEY/FEMALE, Route: GAVAGE, Dose: 0, 30, 100, 175, 300, 550, 1000 NG/KG BW 5 D/WK FOR 2 YRS, Dose: 0, 30, 100, 175, 300, 550, 1000 NG/KG BW 5 D/WK FOR 2 YRS, Tumor Site: Type of Lesion: ORAL CAVITY: SQUAMOUS CELL CARCINOMA): active; positive | carcinogen call (Species: RAT, Strain/Sex: SPRAGUE-DAWLEY/FEMALE, Route: GAVAGE, Dose: 1000 NG/KG BW 5 D/WK FOR 30 WKS (STUDY DURATION: 2 YRS)): inactive; negative | carcinogen call (Species: RAT, Strain/Sex: SPRAGUE-DAWLEY/FEMALE, Route: ORAL, Dose: 0, 30, 100, 175, 300, 550, 1000 NG/KG/D (STUDY DURATION: 2 YRS), Dose: 0, 30, 100, 175, 300, 550, 1000 NG/KG/D (STUDY DURATION: 2 YRS), Tumor Site: Type of Lesion: ORAL MUCOSA: SQUAMOUS CELL CARCINOMA): active; positive; highest dose only

ClCOCCl
carcinogen call (Species: HUMAN, Route: INHALATION, Tumor Site: Type of Lesion: LUNG: OAT CELL CARCINOMA): active; positive | carcinogen call (Species: MOUSE, Strain/Sex: ICR/FEMALE, Route: DERMAL, Tumor Site: Type of Lesion: INTEGUMENTARY SYSTEM (SKIN): PAPILLOMA, SQUAMOUS CELL CARCINOMA): active; positive | carcinogen call (Species: MOUSE, Strain/Sex: ICR/MALE,FEMALE, Route: SUBCUTANEOUS, Dose: 12.5 µL/KG IN PEANUT OIL ONCE, Tumor Site: Type of Lesion: LUNG: ADENOMA): active; positive | carcinogen call (Species: MOUSE, Strain/Sex: ICR/MALE, Route: INHALATION, Dose: 0, 10, 100 PPB 6 HR/D, 5 D/WK FOR 6 MO (STUDY DURATION: 24 MO), Dose: 0, 10, 100 PPB 6 HR/D, 5 D/WK FOR 6 MO (STUDY DURATION: 24 MO), Tumor Site: Type of Lesion: LUNG: ADENOMA OR ADENOCARCINOMA): active; positive | carcinogen call (Species: MOUSE, Strain/Sex: STRAIN-A, Route: INHALATION, Dose: 0.005 MG/L 6 HR/D, 5 D/WK FOR A TOTAL OF 82 D OVER 27 WK, Tumor Site: Type of Lesion: LUNG: ADENOMA): active; positive | carcinogen call (Species: RAT, Strain/Sex: SPRAGUE-DAWLEY/FEMALE, Route: SUBCUTANEOUS, Dose: 3 MG IN 0.1 ML NUJOL 1/WK FOR 100 D THEN 1 MG 1/WK OR 3/MO FOR 200 D, Tumor Site: Type of Lesion: INJECTION SITE: FIBROSARCOMA): active; positive | carcinogen call (Species: RAT, Strain/Sex: SPRAGUE-DAWLEY/MALE, Route: INHALATION, Dose: 0, 1, 10, 100 PPB 6 HR/D, 5 D/WK FOR 6 MO (STUDY DURATION: 19-28 MO), Dose: 0, 1, 10, 100 PPB 6 HR/D, 5 D/WK FOR 6 MO (STUDY DURATION: 19-28 MO), Tumor Site: Type of Lesion: NASAL CAVITY: ESTHESIONEUROEPITHELIOMA): active; positive | carcinogen call (Species: RAT, Strain/Sex: SPRAGUE-DAWLEY, Route: INHALATION, Dose: 0.5 MG/M3 FOR 101 EXPOSURES, Tumor Site: Type of Lesion: LUNG: SQUAMOUS CELL CARCINOMA, NASAL CAVITY: ESTHESIONEUROEPITHELIOMA): active; positive

C=C/C=C\C1C2/C=C/CC(=O)O[C@@]34C[C@@H](C)[C@]5(O)C6C=C(C)C(=O)[C@@]6(O)CC(CO)=C[C@H]5[C@@H]3[C@@]4(C)COC(=O)C2C2C(/C=C/C=C/C=C/CCC)C12 (stereo partly specified)
carcinogen call (Species: MOUSE, Strain/Sex: CD-1/FEMALE (15), Route: DERMAL, Dose: 0, 2 UG IN 0.1 ML OF METHANOL 2/WK FOR 16 WK BEGINNING 1 WK POST CARCINOGEN DOSE THEN 5 UG 2/WK FOR 13 WK (STUDY DURATIO): inactive; negative

OC(c1ccc(Cl)cc1)(c1cncnc1)c1ccccc1Cl (stereo unspecified)
carcinogen call (Species: Rat, Strain/Sex: Wistar/Female (120/Control group; 80/Experimental group), Route: Oral, Dose: 0, 50, 130, 350 ppm in diet for 24 mo, study duration 24 mo, Dose: 0, 50, 130, 350 ppm in diet for 24 mo, study duration 24 mo): inactive; negative (nonstatistical increase in hepatocellular adenomas) | carcinogen call (Species: Rat, Strain/Sex: Wistar/Male (120/Control group; 80/Experimental group), Route: Oral, Dose: 0, 50, 130, 350 ppm in diet for 24 mo, study duration 24 mo, Dose: 0, 50, 130, 350 ppm in diet for 24 mo, study duration 24 mo): inactive; negative (nonstatistical increase in hepatocellular adenomas)

N#Cc1c(Cl)c(Cl)c(Cl)c(C#N)c1Cl
carcinogen call (Species: MOUSE, Strain/Sex: B6C3F1/FEMALE, Route: ORAL, Dose: 0, 3000, 6000 PPM IN DIET, TWA, Dose: 0, 3000, 6000 PPM IN DIET, TWA): inactive; negative | carcinogen call (Species: MOUSE, Strain/Sex: B6C3F1/MALE, Route: ORAL, Dose: 0, 2688, 5375 PPM IN DIET, TWA, Dose: 0, 2688, 5375 PPM IN DIET, TWA): inactive; negative | carcinogen call (Species: Mouse, Strain/Sex: CD-1/Female (60 per group), Route: Oral, Dose: 0, 750, 1,500, 3,000 ppm in diet for 2 yr, Dose: 0, 750, 1,500, 3,000 ppm in diet for 2 yr, Tumor Site: Type of Lesion: Forestomach: Squamous cell papillomas or carcinomas (0, 2, 6, 5), No dose response): active; positive (ca dpr describes as possible adverse effect; study details not given i | carcinogen call (Species: Mouse, Strain/Sex: CD-1/Male (60 per group), Route: Oral, Dose: 0, 750, 1,500, 3,000 ppm in diet for 2 yr, Dose: 0, 750, 1,500, 3,000 ppm in diet for 2 yr, Tumor Site: Type of Lesion: Kidney: renal tubular adenoma or carcinoma (0, 6, 4, 4). Forestomach: Squamous cell papillomas or carcinomas (0, 2, 5, 2): active; positive without dose response (ca dpr describes as possible adverse effect); st | carcinogen call (Species: RAT, Strain/Sex: OSBORNE-MENDEL/FEMALE, Route: ORAL, Dose: 0, 5063, 10126 PPM IN DIET, TWA, Dose: 0, 5063, 10126 PPM IN DIET, TWA, Tumor Site: Type of Lesion: KIDNEY: ADENOMA OR CARCINOMA (NOS) OR TUBULAR CELL ADENOMA OR TUBULAR CELL ADENOCARCINOMA): active; positive | carcinogen call (Species: RAT, Strain/Sex: OSBORNE-MENDEL/MALE, Route: ORAL, Dose: 0, 5063, 10126 PPM IN DIET, TWA, Dose: 0, 5063, 10126 PPM IN DIET, TWA, Tumor Site: Type of Lesion: KIDNEY: CARCINOMA (NOS) OR TUBULAR CELL ADENOMA OR TUBULAR CELL ADENOCARCINOMA OR ADENOCARCINOMA OR PAPILLARY ADENOMA): active; positive | carcinogen call (Species: Rat, Strain/Sex: Fischer 344/Female (55 per group), Route: Oral, Dose: 0, 1.8, 3.8, 15.2, 183 mg/kg/day in diet for 125 wks, Dose: 0, 1.8, 3.8, 15.2, 183 mg/kg/day in diet for 125 wks, Tumor Site: Type of Lesion: Kidney: Renal tubular adenomas and carcinomas (0, 0, 0, 0, 32 in 53-55 animals). Forestomach: Papillomas and carcinomas): active; positive (study details not given in source) | carcinogen call (Species: Rat, Strain/Sex: Fischer 344/Male (55 per group), Route: Oral, Dose: 0, 1.8, 3.8, 15.2, 183 mg/kg/day in diet for 99 wks (high dose) or 111 wk (all others), Dose: 0, 1.8, 3.8, 15.2, 183 mg/kg/day in diet for 99 wks (high dose) or 111 wk (all others), Tumor Site: Type of Lesion: Kidney: Renal tubular adenomas and carcinomas (1, 1, 1, 4, 23 in 53-55 animals) Forestomach: Papillomas and carcinomas (): active; positive (study details not given in source) | carcinogen call (Species: Rat, Strain/Sex: Sprague-Dawley/Female (50 per group), Route: Oral, Dose: 0, 15, 60, 240, 1,200 mg/kg/day in diet for 2 yr, Dose: 0, 15, 60, 240, 1,200 mg/kg/day in diet for 2 yr, Tumor Site: Type of Lesion: Forestomach: Papillomas or carcinomas (0, 0, 0, 2, 1), Not significant): inactive; negative (ca dpr describes as possible adverse effect; study details not given i | carcinogen call (Species: Rat, Strain/Sex: Sprague-Dawley/Male (50 per group), Route: Oral, Dose: 0, 15, 60, 240, 1,200 mg/kg/day in diet for 2 yr, Dose: 0, 15, 60, 240, 1,200 mg/kg/day in diet for 2 yr, Tumor Site: Type of Lesion: Forestomach: Papillomas or carcinomas (0, 0, 0, 0, 3), Borderline significance): active; positive at highest dose (ca dpr describes as possible adverse effect; study det
